Test results as given in US7244760B2, “Methods for preparation and use of psorospermin analogs” (Board of Regents, The University of Texas System, priority 2001, dated 2007).
pIC50: −log10 of the molar value. “Also recorded” adds a separate entry of the source. Where two headings read alike, the source gives them in different places.

Legend:
MiaPaCa-2 (pancreatic) = assay: Microcytoxicity assay (SRB), MiaPaCa-2; assay type: cell-based, human; conditions: for In vitro cytotoxic potency: MiaPaCa-2, 4 days, SRB
Description: (§1) (i) Human tumor cell lines. Human tumor cell lines representative of major forms of human cancer for use in the microcytoxicity assay include MCF7 (breast), SW480 (colon), HL-60 (promyelocytic leukemia), MiaPaCa-2 (pancreatic), U937 (histiocytic lymphoma), and 8226 (myeloma) (see Table 5). One drug resistant variant of 8226 was also included: 8226/DOX40, an mdr-1-mediated drug resistant cell line. Other matched pairs may also be added. All lines have known karyotypes that are checked at least annually for quality control.
(§2) Cells were grown in suspension in RPMI 1640 medium supplemented with 5% fetal bovine serum, 1% (v/v) penicillin (100 unit/ml), streptomycin (100 μg/ml), and 1% (v/v) L-glutamine (all from GIBCO, Grand Island, N.Y.) at 37° C. in 5% CO2, 95% air atmosphere, and were passaged once every six days. Additionally, these lines are capable of in vivo growth in SCID mice for in vivo confirmatory studies. In initial experiments, two diastereomeric pairs of (±)-psorospermin methyl ethers in a series of cell lines were evaluated.
(§3) (ii) Microcytoxicity assay. A standard 96-well microcytoxicity assay is performed by plating each cell line in a microtiter plate at 4,000-10,000 cells per well (depending on cell doubling time), six replicate wells per drug dose. All plates are incubated for 4 days at 37° C. in a humidified tissue culture incubator containing 5% CO2 in air. The endpoint determination uses sulforhodamine blue (SRB) and spectrophotometric determination of protein content of each well as reflected by SRB staining. IC50 values were calculated by linear regression analysis.

DU 145 = assay: Microcytoxicity assay (SRB), DU 145; assay type: cell-based, human
Protocol: as §2, §3

HT-29 = assay: Microcytoxicity assay (SRB), HT-29; assay type: cell-based, human
Protocol: as §3

MCF7 (breast) = assay: Microcytoxicity assay (SRB), MCF7; assay type: cell-based, human; conditions: for In vitro cytotoxic potency: 4 days, SRB
Description: as §1, §2, §3

SW480 (colon) = assay: Microcytoxicity assay (SRB), SW480; assay type: cell-based, human; conditions: 4 days
Description: as §1, §2
(§4) (ii) Microcytoxicity assay. A standard 96-well microcytoxicity assay is performed by plating each cell line in a microtiter plate at 4,000-10,000 cells per well (depending on cell doubling time), six replicate wells per drug dose. […] IC50 values were calculated by linear regression analysis.

8226 (myeloma) = assay: Microcytoxicity assay (SRB), 8226; assay type: cell-based, human; conditions: 4 days
Description: as §1, §2, §4

[1] = system: 8226/DOX40, an mdr-1-mediated drug resistant cell line; assay: Microcytoxicity assay (SRB), 8226/DOX40; assay type: cell-based, human; conditions: 4 days
Description: as §1, §2, §4

[2] = system: HL-60 (promyelocytic leukemia); assay: Microcytoxicity assay (SRB), HL-60; assay type: cell-based, human
Description: as §1, §2, §3

[3] = system: U937 (histiocytic lymphoma); assay: Microcytoxicity assay (SRB), U937; assay type: cell-based, human; conditions: 4 days
Description: as §1, §2, §4

[4] = system: HL60/AR (adriamycin resistant); assay: Microcytoxicity assay (SRB), HL60/AR; assay type: cell-based, human; conditions: Acute promyelocytic leukemia
Protocol: as §2, §3

[5] = system: Acute promyelocytic leukemia; assay: Microcytoxicity assay (SRB), cell line not given; assay type: cell-based, human; conditions: cell line cell empty; origin Acute promyelocytic leukemia
Protocol: as §2, §3

K562 = assay: Microcytoxicity assay (SRB), K562; assay type: cell-based, human; conditions: Chronic myelogenous leukemia
Protocol: as §2, §3

[6] = system: K562/R (daunorubicin resistant); assay: Microcytoxicity assay (SRB), K562/R; assay type: cell-based, human; conditions: Chronic myelogenous leukemia
Protocol: as §2, §3

A2780 = assay: Microcytoxicity assay (SRB), A2780; assay type: cell-based, human; conditions: Ovarian
Protocol: as §2, §3

[7] = system: A2780/CP70 (cisplatin resistant); assay: Microcytoxicity assay (SRB), A2780/CP70; assay type: cell-based, human; conditions: Ovarian
Protocol: as §2, §3

MCF 10A = assay: Microcytoxicity assay (SRB), MCF 10A; assay type: cell-based; conditions: Breast, normal mammary
Protocol: as §2, §3

LnCAP = assay: Microcytoxicity assay (SRB), LnCAP; assay type: cell-based, human; conditions: Prostate, lymph node mets
Protocol: as §2, §3

PEAZ-1 = assay: Microcytoxicity assay (SRB), PEAZ-1; assay type: cell-based, human; conditions: Prostate, primary
Protocol: as §2, §3

PC-3 = assay: Microcytoxicity assay (SRB), PC-3; assay type: cell-based, human; conditions: Prostate, adenocarcinoma, mets
Protocol: as §2, §3

PC-3N = assay: Microcytoxicity assay (SRB), PC-3N; assay type: cell-based, human; conditions: Prostate, N-cadherin positive
Protocol: as §2, §3

tumor cell lines = assay: Microcytoxicity assay, all tumor cell lines tested; assay type: cell-based, human; conditions: on average over the cell lines of Table 5
Description: as §1, §2, §4

topoisomerase II = topoisomerase II (Drosophila melanogaster, UniProt P15348); assay: Topoisomerase II-mediated DNA cleavage; assay type: biochemical
Chain of topoisomerase II (P15348 whole entry): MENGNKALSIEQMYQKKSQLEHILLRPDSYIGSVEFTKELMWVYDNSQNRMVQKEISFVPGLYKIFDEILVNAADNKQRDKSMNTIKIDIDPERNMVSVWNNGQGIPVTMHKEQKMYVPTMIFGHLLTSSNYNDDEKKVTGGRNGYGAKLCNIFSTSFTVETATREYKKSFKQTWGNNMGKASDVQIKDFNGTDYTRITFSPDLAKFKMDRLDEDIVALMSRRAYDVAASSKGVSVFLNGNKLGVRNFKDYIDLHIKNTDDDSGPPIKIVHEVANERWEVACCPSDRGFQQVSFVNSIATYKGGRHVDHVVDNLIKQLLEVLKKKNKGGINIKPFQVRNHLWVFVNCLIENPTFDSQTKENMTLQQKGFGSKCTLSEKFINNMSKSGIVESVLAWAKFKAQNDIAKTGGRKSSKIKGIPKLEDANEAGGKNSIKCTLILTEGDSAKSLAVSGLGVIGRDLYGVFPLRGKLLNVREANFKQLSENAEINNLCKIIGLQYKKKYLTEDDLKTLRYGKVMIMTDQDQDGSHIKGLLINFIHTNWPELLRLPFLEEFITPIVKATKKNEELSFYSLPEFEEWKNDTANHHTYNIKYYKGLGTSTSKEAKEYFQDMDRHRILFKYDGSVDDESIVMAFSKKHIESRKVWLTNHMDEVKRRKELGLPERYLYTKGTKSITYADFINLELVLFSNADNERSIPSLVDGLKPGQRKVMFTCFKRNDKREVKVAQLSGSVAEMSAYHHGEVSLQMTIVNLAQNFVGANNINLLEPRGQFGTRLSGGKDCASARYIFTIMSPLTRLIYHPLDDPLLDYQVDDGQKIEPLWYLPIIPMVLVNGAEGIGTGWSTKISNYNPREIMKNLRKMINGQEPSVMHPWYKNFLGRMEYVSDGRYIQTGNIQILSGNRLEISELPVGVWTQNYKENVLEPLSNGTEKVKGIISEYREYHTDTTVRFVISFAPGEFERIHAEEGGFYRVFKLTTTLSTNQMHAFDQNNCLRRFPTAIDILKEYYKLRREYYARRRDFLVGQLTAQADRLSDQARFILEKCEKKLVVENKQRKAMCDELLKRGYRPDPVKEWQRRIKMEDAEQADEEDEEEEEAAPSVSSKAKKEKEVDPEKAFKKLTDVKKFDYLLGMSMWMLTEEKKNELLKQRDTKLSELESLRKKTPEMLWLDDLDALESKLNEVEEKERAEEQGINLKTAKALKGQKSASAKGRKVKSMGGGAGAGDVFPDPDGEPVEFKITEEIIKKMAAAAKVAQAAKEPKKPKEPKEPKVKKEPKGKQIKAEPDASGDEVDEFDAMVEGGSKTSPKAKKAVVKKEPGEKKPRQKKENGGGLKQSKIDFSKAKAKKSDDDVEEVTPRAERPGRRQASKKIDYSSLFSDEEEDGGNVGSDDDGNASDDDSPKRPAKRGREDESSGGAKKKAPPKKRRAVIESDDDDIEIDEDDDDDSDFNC
Protocol: (§5) In the absence of psorospermin, the intensity of the topoisomerase II-mediated DNA cleavage is much less at site B than at site A. As the concentration of psorospermin was increased, the topoisomerase II-mediated DNA cleavage at site A was decreased, while the cleavage at site B was enhanced. The psorospermin-induced DNA cleavage by topoisomerase II reaches a maximum of 3-fold at a 10 μM drug concentration (FIG. 4). […] On the other hand, the cleaved complex formation at site A was reduced in the presence of psorospermin, despite the 3-fold enhancement of psorospermin alkylation at site A.
(§6) Sites A and B are three base pairs apart from each other, and Drosophila topoisomerase II binds a region of approximately 23 base pairs, based on the results of a DNase I footprinting experiment (Lee et al, 1989). Therefore, it is likely that sites A and B are competing with each other for topoisomerase II binding, and the 25-fold enhancement of the psorospermin alkylation at site B dominates this competition. FIG. 5 summarizes the three possible biochemical consequences of the site-directed alkylation of DNA by psorospermin. Because psorospermin is a 7-alkyl adduct, depurination occurs slowly at room temperature over a period of several days.

[8] = target: topoisomerase II-DNA complex (Drosophila melanogaster, UniProt P15348); assay: Topoisomerase II site-directed alkylation of DNA; assay type: biochemical; conditions: in the presence of topoisomerase II
Chain of topoisomerase II-DNA complex (P15348 whole entry, one chain of several): as the sequence (P15348 whole entry) above
Protocol: as §5, §6

P388 mouse leukemia = conditions: cited from earlier work
various tumor cell lines = conditions: cited from earlier work

## (2R,3S)-psorospermin methyl ether [Compound 117]
MiaPaCa-2 (pancreatic); MiaPaCa, read-out: IC50
  pIC50: 6.40
DU 145; DU-145, read-out: IC50
  pIC50: 6.40
HT-29
  pIC50: 6.15

## (±)-(2′R,3′S) (2′S,3′R) psorospermin methyl ether [Compound B]
MCF7 (breast)
  In vitro cytotoxic potency: 0.74 µg/mL
SW480 (colon)
  In vitro cytotoxic potency: 0.36 µg/mL
MiaPaCa-2 (pancreatic)
  In vitro cytotoxic potency: 0.48 µg/mL
8226 (myeloma)
  In vitro cytotoxic potency: 0.33 µg/mL
[1]
  In vitro cytotoxic potency: 0.30 µg/mL
[2]; HL-60, positive for c-myc and BCL-2
  sensitivity of HL-60: highly sensitive

## COc1c2c(c3oc4ccccc4c(=O)c3c1OC)CC([C@@]1(C)CO1)O2 (mixture of isomers) [Compound A, (±)-(2′R,3′R) (2′S,3′S) psorospermin methyl ether]
MCF7 (breast)
  In vitro cytotoxic potency: 0.28 µg/mL
MCF7 (breast); Breast, adenocarcinoma
  pIC50: 6.21
SW480 (colon)
  In vitro cytotoxic potency: 0.24 µg/mL
MiaPaCa-2 (pancreatic); MIA PaCa-2, pancreas, read-out: IC50 Values
  pIC50: 6.74
MiaPaCa-2 (pancreatic); MiaPaCa
  activity in the pancreatic cell line MiaPaCa: remarkable activity
MiaPaCa-2 (pancreatic)
  In vitro cytotoxic potency: 0.26 µg/mL
MiaPaCa-2 (pancreatic); MiaPaCa, versus gemcytabine
  activity in MiaPaCa compared with gemcytabine: as good or better
8226 (myeloma)
  In vitro cytotoxic potency: 0.21 µg/mL
[1]
  In vitro cytotoxic potency: 0.06 µg/mL
[3]
  In vitro cytotoxic potency: 0.062 µg/mL
[2]; HL60, origin printed: promyelocytic leukemia
  pIC50: 7.44
[2]; HL-60, 4 days, SRB
  In vitro cytotoxic potency: 0.026 µg/mL
[4]
  pIC50: 7.92
[5]
  pIC50: 7.96
K562
  pIC50: 7.44
[6]
  pIC50: 7.62
A2780
  pIC50: 7.20
[7]
  pIC50: 6.33
MCF 10A
  pIC50: 5.27
DU 145; DU 145, Prostate, brain mets, read-out: IC50 Values
  pIC50: 6.52
LnCAP
  pIC50: 6.34
PEAZ-1
  pIC50: 6.80
PC-3
  pIC50: 6.55
PC-3N
  pIC50: 6.89
Tumor cell lines
  effectiveness relative to Compound B: more potent; also recorded: twice as effective

## (2S,3R)-psorospermin methyl ether [Compound 116]
MiaPaCa-2 (pancreatic); MiaPaCa, read-out: IC50
  pIC50: 5.40
DU 145; DU-145, read-out: IC50
  pIC50: 5.40
HT-29
  pIC50: 5.15

## COc1cc2c(c3oc4c(O)cccc4c(=O)c13)C[C@H]([C@@]1(C)CO1)O2 [psorospermin]
Topoisomerase II; site A, as the concentration of psorospermin was increased
  topoisomerase II-mediated DNA cleavage at site A: decreased
Topoisomerase II; site B, 10 μM drug concentration
  psorospermin-induced DNA cleavage by topoisomerase II, maximum: 3 fold
[8]; site A
  enhancement of psorospermin alkylation at site A: 3 fold
[8]; site B
  enhancement of the psorospermin alkylation at site B: 25 fold
P388 mouse leukemia
  activity in vivo against P388 mouse leukemia: significant activity
Various tumor cell lines
  activity in vitro against various tumor cell lines: significant activity
